Measured values: patent US20040266699A1, “Flavonoid compounds capable of modifying the dynamic and/or physical state of biological membranes and to stimulate the endogenous synthesis of stress proteins in eukaryotic cells, relative synthesis and their use” (priority 2001, published 2004)

Tests used:
[1] = Membrane fluidity (DPH fluorescence anisotropy) in artificial membranes (LUVs); settings: LUVs of di-oleil-fosfatidyl-ethanolamine, di-oleil-fosfatidyl-choline, cardiolipin and fosfatidylserine; 1 DPH per 500 lipid molecules
Description: Test to evaluate changes of MPS in artificial membranes (LUVs, Large Unilamellar Vesicles), made of di-oleil-fosfatidyl-ethanolamine, di-oleil-fosfatidyl-choline, cardiolipin and fosfatidylserine, that mimic biological membrane lipid composition. Fluidity has been measured with DPH (1,6-difenyl-1,3,5-esatriene) measuring fluorescence.
In these membranes, every 500 lipid molecules is inserted. 1 molecule of DPH This substance emits fluorescent light when it is excited with polarized light. The more a membrane is rigid the less is the capacity of the molecules to rotate freely in the membrane. Using a fluorimeter that detects the emitted fluorescence by DPH, either vertically in respect to the polarizing light or horizontally, the anisotropy of the membrane is determined and correlated to its fluidity. The more the membrane is fluid, the more DPH rotates freely and emits light in a direction different from that with which it receives the excitation. To a higher value of anisotropy corresponds a higher rigidity of the membrane, while a lower anisotropy (low fluorescence) corresponds a higher fluidity.

human hsp70 promoter = assay: Luciferase reporter assay under control of human hsp70 promoter in L929 cells exposed to heat shock; type: cell-based, murine; settings: 10 μM, heat shock at 40° C. and 41° C., Bimoclomol as internal positive control
Description: For example, L929 cells, incubated at 37° C., are stressed by heat shock at 40° or 41° C. with exposures variable from 20 min to an hour or more. After heat shock, a molecular assay that involves mRNA purification, its separation on agarose or acrylamide gels followed by hybridization with a labeled probe ([…] performed. Alternatively, the activity of luciferase used as reported gene under the control of a heat shock promoter can be used (FIG. 1). In this case, after heat shock cells are lysed in the presence of an appropriate substrate for luciferase, the activity is measured with a luminometer. […] The test utilized to assay the over expression of heat shock genes is based on a rapid enzymatic assay to determine luminescence of eukaryotic cells transfected with luciferase gene. The luciferase gene has been cloned in an eukaryotic plasmid under the control of human hsp70 gene and transfected in murine fibroblasts (L929 cell line). In such cells, a heat shock induces hsp70 promoter that activates transcription of the downstream gene (reporter gene, e.g. luciferase) whose activity is measured determining luciferase in the presence of luciferine with a luminometer. […] After lysis, luciferase activity has been determined measuring the quantity of light emitted with a luminometer. […]

## Oc1ccc2c(c1)O[C@H](c1ccc(O)c(O)c1)[C@@H](O[C@@H]1OC[C@@H](O)[C@H](O)[C@H]1O)C2 [#11, fisetinidol-3-O-β-D-xylopyranoside]
[1]
  change of membrane physical state (fluidity) measured with DPH fluorescence: increases fluidity
Human hsp70 promoter
  heat shock response (hsp70 promoter-driven luciferase activity / inducibility of hsp70 mRNA transcription by heat shock): induce a heat shock response

## Oc1ccc(C=Cc2cc(O)cc(O)c2)cc1 [#100, Resveratrol, reference compound]
Human hsp70 promoter
  heat shock response (hsp70 promoter-driven luciferase activity / inducibility of hsp70 mRNA transcription by heat shock): inhibits the inducibility of hsp70 mRNA transcription by heat shock
